{
  "source": "ChEMBL document CHEMBL1201862",
  "about": "“PubChem BioAssay data set” (2004)",
  "key": {"[1]": {"target": "T1, Type-1 angiotensin II receptor (Homo sapiens, UniProt P30556)", "T1 sequence (P30556 whole entry)": "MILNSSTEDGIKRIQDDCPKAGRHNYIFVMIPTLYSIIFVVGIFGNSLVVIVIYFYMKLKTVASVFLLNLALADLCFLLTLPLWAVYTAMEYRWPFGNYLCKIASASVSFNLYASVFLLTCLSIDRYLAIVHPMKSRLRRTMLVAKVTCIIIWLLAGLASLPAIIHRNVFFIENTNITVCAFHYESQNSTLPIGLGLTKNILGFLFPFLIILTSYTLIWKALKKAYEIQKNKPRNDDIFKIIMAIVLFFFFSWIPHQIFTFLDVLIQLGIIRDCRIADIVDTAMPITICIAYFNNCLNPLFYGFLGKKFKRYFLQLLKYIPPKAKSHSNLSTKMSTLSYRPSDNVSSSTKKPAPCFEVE", "assay": "AT1 receptor antagonists, dose response, selectivity assay for APJ receptor antagonist project, cell-based, uHTS hits (AID 463214);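 note: antagonist potency against angiotensin II stimulated AT1 response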", "assay_type": "functional"}, "Beta-galactosidase": {"target": "Beta-galactosidase (Escherichia coli, UniProt Q8VNN2)", "sequence (Q8VNN2 whole entry)": "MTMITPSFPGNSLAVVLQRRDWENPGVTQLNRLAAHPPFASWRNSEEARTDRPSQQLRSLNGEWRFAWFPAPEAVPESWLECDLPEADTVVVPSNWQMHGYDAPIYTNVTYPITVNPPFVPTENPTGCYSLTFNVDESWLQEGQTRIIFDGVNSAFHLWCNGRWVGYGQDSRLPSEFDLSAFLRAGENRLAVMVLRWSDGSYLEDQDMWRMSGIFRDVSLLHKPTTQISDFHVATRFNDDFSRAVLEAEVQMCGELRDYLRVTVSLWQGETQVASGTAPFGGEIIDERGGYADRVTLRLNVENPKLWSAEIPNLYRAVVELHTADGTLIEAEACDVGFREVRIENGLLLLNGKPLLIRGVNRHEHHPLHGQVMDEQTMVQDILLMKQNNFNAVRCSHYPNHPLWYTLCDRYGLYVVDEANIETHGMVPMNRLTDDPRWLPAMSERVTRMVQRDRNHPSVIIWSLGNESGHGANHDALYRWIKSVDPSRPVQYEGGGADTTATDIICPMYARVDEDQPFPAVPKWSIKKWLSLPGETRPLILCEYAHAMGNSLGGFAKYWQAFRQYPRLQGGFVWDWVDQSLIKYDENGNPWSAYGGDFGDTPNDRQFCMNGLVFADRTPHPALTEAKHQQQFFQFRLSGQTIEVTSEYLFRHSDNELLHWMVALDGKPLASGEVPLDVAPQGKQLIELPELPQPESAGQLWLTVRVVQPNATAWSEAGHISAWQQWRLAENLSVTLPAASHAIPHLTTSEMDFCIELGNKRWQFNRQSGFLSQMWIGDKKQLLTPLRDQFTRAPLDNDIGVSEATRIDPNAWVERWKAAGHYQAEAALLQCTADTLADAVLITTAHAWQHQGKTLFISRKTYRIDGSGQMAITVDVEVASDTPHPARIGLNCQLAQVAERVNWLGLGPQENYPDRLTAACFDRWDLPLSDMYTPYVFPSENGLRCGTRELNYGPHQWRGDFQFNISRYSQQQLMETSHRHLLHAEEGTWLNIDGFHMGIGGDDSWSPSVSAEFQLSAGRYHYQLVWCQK", "assay": "PubChem AID 485352", "assay_type": "functional"}, "Vero [2]": {"system": "Vero", "assay": "cells", "assay_type": "functional, cell-based", "details": "Chlorocebus sabaeus"}, "Vero [3]": {"system": "Vero", "assay": "cells", "assay_type": "functional", "details": "Chlorocebus sabaeus"}, "[4]": {"target": "Glyceraldehyde-3-phosphate dehydrogenase (Homo sapiens, UniProt P04406)", "sequence (P04406 whole entry)": "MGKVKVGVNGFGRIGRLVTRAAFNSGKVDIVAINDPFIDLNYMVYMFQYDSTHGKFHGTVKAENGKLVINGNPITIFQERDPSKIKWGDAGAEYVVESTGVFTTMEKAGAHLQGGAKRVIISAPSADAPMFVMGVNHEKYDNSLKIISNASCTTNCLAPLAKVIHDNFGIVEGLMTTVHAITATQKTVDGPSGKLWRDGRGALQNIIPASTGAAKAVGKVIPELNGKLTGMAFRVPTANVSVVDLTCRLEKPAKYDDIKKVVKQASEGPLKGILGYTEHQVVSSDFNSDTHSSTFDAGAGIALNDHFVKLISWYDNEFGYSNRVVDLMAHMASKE"}, "[5]": {"target": "T2, Alkaline phosphatase, tissue-nonspecific isozyme (Homo sapiens, UniProt P05186)", "T2 sequence (P05186 whole entry)": "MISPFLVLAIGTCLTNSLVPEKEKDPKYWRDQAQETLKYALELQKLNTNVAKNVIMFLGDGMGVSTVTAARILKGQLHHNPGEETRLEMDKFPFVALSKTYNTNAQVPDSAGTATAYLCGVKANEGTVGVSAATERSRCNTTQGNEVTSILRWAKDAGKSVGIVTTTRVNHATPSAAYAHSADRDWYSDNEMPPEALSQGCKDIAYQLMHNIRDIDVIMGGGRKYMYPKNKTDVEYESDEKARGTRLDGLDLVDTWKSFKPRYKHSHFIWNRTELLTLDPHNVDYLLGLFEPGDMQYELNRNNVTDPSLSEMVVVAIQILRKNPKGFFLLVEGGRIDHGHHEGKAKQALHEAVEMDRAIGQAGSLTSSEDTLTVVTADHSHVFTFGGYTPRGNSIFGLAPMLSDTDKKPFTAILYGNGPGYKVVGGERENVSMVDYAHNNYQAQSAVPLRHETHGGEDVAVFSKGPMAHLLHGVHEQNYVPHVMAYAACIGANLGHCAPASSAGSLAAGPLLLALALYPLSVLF", "assay": "human TNAP enzyme inhibitors, SAR follow-up, biochemical, luminescent, dose response (AID 1056)"}, "[6]": {"assay": "insulin promoter down-regulators in MIN6 cells, imaging, high-content screening, mouse beta cells (AID 1628)", "assay_type": "functional"}, "[7]": {"assay": "cytotoxicity in MIN6 insulinoma cells, dose response, cytotoxicity control, cell-based, mouse insulinoma (AID 2122);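 note: confirmatory high-throughput counterscreen run to flag cytotoxic compounds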", "assay_type": "functional"}, "[8]": {"assay": "growth induction of Burl-1 ts yeast mutant, dose response, counter-screen for SUMOylation pathway inhibitor project, whole organism, S. cerevisiae, luminescence (AID 463199)", "assay_type": "functional"}, "INS1": {"system": "INS1", "assay": "beta cell apoptosis inhibitors, cytokine rescue, dose response, luminescence, retest (AID 449756);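 note: cell death triggered by IL-1 beta plus TNF-alpha plus IFN-gamma mixture; protective hits raise ATP signal compared with cytokine alone wells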", "assay_type": "functional, cell-based", "details": "Rattus norvegicus"}, "[9]": {"assay": "cytotoxicity toward NIH3T3 fibroblasts, dose response, counter-screen, cell-based, ATP luminescence, mouse fibroblasts (AID 2010);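 note: cells exposed to compound for about 90 hours before reading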", "assay_type": "functional"}, "[10]": {"target": "T3, Short transient receptor potential channel 4 (Mus musculus, UniProt Q9QUQ5)", "T3 sequence (Q9QUQ5 whole entry)": "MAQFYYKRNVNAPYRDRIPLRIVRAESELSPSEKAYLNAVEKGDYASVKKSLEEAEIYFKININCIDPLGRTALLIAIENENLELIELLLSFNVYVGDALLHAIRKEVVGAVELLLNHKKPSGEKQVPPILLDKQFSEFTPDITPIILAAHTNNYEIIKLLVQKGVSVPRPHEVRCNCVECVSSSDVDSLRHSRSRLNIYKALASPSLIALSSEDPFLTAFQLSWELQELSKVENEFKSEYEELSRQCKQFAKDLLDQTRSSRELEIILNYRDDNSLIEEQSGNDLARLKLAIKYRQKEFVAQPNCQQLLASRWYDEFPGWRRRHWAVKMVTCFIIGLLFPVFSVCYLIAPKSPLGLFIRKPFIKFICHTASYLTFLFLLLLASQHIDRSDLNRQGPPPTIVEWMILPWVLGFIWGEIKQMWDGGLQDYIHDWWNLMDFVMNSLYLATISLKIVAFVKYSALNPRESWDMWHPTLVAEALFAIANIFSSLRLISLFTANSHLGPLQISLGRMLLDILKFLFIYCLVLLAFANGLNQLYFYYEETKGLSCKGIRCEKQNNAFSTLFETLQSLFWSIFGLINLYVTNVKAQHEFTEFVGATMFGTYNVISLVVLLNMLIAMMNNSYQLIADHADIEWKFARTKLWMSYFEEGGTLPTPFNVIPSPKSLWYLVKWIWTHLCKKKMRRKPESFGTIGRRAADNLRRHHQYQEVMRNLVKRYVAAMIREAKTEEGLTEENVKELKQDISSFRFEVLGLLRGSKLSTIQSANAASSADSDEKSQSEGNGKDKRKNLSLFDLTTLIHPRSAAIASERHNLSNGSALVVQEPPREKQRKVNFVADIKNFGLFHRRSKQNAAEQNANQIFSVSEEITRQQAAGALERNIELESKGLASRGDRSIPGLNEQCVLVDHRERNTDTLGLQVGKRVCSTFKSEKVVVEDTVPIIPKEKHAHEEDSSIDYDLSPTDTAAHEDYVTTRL", "assay": "mouse TRPC4 channel activators, dose response, cell-based, HEK293 TRPC4/mu-opioid, Fluo-4 calcium (AID 434937)", "assay_type": "functional"}, "[11]": {"assay": "inhibitors of intracellular T. cruzi replication, confirmation, NIH3T3 host cells, beta-gal luminescence (AID 2044);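 note: luminescent beta-galactosidase reporter signal from transgenic T. cruzi replicating inside host cells; inhibitors lower the luminescence signal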", "assay_type": "functional, cell-based"}, "[12]": {"assay": "control 3'UTR Renilla luciferase suppression, dose response, counter-screen for Shn3 inhibitor project, cell-based, Clone20-Shn3RL, cherry-picked (AID 624133)", "assay_type": "functional"}, "[13]": {"assay": "Shn3 3'UTR reporter inhibitors, dose response, cell-based, Clone20 osteoblasts, firefly luciferase, cherry-picked (AID 624132)", "assay_type": "functional"}, "[14]": {"assay": "cytotoxicity in HEK-293T cells, dose response, cytotoxicity control for TCR NF-kB inhibitor project, luminescence, T-cell screen hits (AID 489026);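 note: cells exposed to compound about 14 hours before the viability readout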", "assay_type": "functional, cell-based"}, "[15]": {"assay": "HepG2 cell cytotoxicity, dose response, cytotoxicity control for Shn3 inhibitor project, CellTiter-Glo, cherry-picked (AID 624134)", "assay_type": "functional, cell-based"}, "CAAX prenyl protease 2": {"target": "T4, CAAX prenyl protease 2 (Homo sapiens, UniProt Q9Y256)", "T4 sequence (Q9Y256 whole entry)": "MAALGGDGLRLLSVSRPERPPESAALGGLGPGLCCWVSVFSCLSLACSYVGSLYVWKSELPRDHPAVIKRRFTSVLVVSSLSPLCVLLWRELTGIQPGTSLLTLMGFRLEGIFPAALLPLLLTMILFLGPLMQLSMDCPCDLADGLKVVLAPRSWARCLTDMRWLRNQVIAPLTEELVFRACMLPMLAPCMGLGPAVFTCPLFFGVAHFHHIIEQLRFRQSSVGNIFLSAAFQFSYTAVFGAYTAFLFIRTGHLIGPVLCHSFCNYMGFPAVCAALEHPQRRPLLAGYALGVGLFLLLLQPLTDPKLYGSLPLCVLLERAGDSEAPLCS", "assay": "human Rce1 protease inhibitors, dose response, biochemical, yeast membranes, quenched-peptide fluorescence, cherry-pick (AID 588849)"}, "[16]": {"target": "Eukaryotic translation initiation factor 4E (Mus musculus, UniProt P63073)", "sequence (P63073 whole entry)": "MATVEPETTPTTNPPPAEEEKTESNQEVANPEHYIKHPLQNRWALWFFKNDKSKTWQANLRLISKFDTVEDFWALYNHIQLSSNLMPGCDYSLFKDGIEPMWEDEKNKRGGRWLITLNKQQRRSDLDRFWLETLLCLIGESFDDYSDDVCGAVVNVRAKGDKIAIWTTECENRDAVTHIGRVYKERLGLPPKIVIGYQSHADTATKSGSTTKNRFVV", "assay": "eIF4E–eIF4G protein interaction inhibitors, dose response, biochemical, TR-FRET (AID 855);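 note: potency for disrupting eIF4E binding to eIF4GI seen as loss of FRET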", "assay_type": "functional"}, "Cytochrome P450 2C19": {"target": "Cytochrome P450 2C19 (Homo sapiens, UniProt P33261)", "sequence (P33261 whole entry)": "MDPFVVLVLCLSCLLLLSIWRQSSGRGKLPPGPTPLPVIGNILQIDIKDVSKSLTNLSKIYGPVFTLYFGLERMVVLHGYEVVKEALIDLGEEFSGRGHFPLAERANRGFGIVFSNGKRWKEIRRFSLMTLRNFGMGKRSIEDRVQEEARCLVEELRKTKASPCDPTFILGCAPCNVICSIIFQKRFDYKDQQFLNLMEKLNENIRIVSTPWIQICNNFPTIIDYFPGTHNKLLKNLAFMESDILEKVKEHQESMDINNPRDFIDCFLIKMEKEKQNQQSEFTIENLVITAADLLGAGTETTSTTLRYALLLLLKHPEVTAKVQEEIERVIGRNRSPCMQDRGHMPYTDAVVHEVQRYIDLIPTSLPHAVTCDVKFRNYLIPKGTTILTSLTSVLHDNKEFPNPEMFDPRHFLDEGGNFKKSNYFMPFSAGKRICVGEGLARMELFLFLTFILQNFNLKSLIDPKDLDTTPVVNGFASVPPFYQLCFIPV", "assay": "Cytochrome panel assay with activity outcomes. Panel member name: p450-cyp2c19 Compounds with AC50 equal or less than 10 uM are considered active", "assay_type": "functional"}, "Cytochrome P450 2C9": {"target": "Cytochrome P450 2C9 (Homo sapiens, UniProt P11712)", "sequence (P11712 whole entry)": "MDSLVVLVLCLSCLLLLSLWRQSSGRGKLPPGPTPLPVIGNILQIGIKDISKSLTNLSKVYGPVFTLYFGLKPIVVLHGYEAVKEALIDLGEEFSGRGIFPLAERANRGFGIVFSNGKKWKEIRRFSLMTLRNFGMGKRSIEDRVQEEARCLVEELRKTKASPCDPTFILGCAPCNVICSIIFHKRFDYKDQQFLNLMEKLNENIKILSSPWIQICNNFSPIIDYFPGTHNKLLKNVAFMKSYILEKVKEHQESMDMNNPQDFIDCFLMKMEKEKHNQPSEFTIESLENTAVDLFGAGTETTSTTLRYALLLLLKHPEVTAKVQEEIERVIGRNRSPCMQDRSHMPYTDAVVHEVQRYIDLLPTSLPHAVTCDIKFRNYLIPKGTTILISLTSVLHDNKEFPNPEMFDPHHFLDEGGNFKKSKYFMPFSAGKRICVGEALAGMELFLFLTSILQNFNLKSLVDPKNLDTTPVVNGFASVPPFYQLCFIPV"}},
  "note": "Activity calls are given as the source filed them.",
  "data": [
    {"molecule": "COc1ccc(C(=O)CNc2cccc(F)c2)cc1", "values": [
      {"measurement": "IC50", "setting": "[1]", "result": "28 µM (not active)"},
      {"measurement": "EC50", "setting": "Beta-galactosidase", "result": "> 40 µM (inactive)"}
    ]},
    {"molecule": "CCc1c(C)sc(NC(=O)C2CC2c2ccccc2)c1C(N)=O", "note": "(stereo unspecified)", "values": [
      {"measurement": "IC50", "setting": "Vero [2]", "result": "3.57 µM (active)"},
      {"measurement": "CC50", "setting": "Vero [3]", "result": "> 25 µM (active)"}
    ]},
    {"molecule": "O=C1C(Cl)=C(Cl)C(=O)N1c1nnc(Cc2ccccc2)[nH]1", "values": [
      {"measurement": "IC50", "setting": "[4]", "result": "> 100 µM (not active)"},
      {"measurement": "IC50", "setting": "[5]", "result": "3.24 µM (active)"}
    ]},
    {"molecule": "Cc1ccc(-n2c(SCC(=O)NCC3CCCO3)nc3nnc(C)c-3c2N)cc1Cl", "note": "(stereo unspecified)", "values": [
      {"measurement": "IC50", "setting": "[6]", "result": "2.21 µM (active)"},
      {"measurement": "IC50", "setting": "[7]", "result": "4.6 µM (active)"}
    ]},
    {"molecule": "Cc1ccc(Cn2cnc3ccccc32)cc1", "values": [
      {"measurement": "IC50", "setting": "[6]", "result": "4.89 µM (active)"},
      {"measurement": "IC50", "setting": "[7]", "result": "4.02 µM (active)"}
    ]},
    {"molecule": "CC(=O)c1cccc(CN2CCCC(N3CCN(c4ccccc4F)CC3)C2)c1", "note": "(stereo unspecified)", "values": [
      {"measurement": "AC50", "setting": "[8]", "result": "49.9 µM (active)"}
    ]},
    {"molecule": "CC1CCN(C(=O)Cn2cnc3c2c(=O)n(C)c(=O)n3C)c2ccccc2S1", "note": "(stereo unspecified)", "values": [
      {"measurement": "AC50", "setting": "[8]", "result": "87.7 µM (active)"}
    ]},
    {"molecule": "Cc1sc2ncnc(NC3CCN(Cc4ccccc4)CC3)c2c1C", "values": [
      {"measurement": "AC50", "setting": "INS1", "result": "2.88 µM (active)"},
      {"measurement": "EC50", "setting": "[9]", "result": "> 60 µM (not active)"},
      {"measurement": "IC50", "setting": "[6]", "result": "0.411 µM (active)"},
      {"measurement": "EC50", "setting": "[10]", "result": "0.0467 µM (active)"},
      {"measurement": "EC50", "setting": "[11]", "result": "1.78 µM (active)"},
      {"measurement": "IC50", "setting": "[7]", "result": "0.316 µM (active)"},
      {"measurement": "AC50", "setting": "[12]", "result": "2.61 µM (active)"},
      {"measurement": "AC50", "setting": "[13]", "result": "1.02 µM (active)"},
      {"measurement": "IC50", "setting": "[14]", "result": "> 80 µM (inactive)"},
      {"measurement": "AC50", "setting": "[15]", "result": "3.41 µM (active)"}
    ]},
    {"molecule": "Cc1csc2nc(=O)c3ccccc3n12", "values": [
      {"measurement": "AC50", "setting": "CAAX prenyl protease 2", "result": "63 µM (active)"}
    ]},
    {"molecule": "COc1ccc(CN2CCN(C(=O)CC(C)C)CC2)c(OC)c1OC", "values": [
      {"measurement": "IC50", "setting": "[16]", "result": "> 64 µM (inactive)"},
      {"measurement": "AC50", "setting": "Cytochrome P450 2C19", "result": "25.1 µM (inconclusive)"},
      {"measurement": "AC50", "setting": "Cytochrome P450 2C9", "result": "inconclusive"}
    ]}
  ]
}
